Assay [1] addresses RNA-directed RNA polymerase (Hepacivirus hominis, UniProt Q8JXU8). Kind of assay: Inhibition of NS5B polymerase in wild type HCV genotype 1b infected in human Huh7 replicon cells after 5 days by RT-PCR assay. In general terms: Replicon systems follow genome replication, usually without infectious particles.
A short description of assay [2]: Inhibition of NS5B polymerase in wild type HCV genotype 1b infected in human Huh7 replicon cells after 5 days by RT-PCR assay.

pEC50: −log10 of the molar value. A value given as a limit tells only on which side of the number the result lay.

Data on 5 molecules can be found in BindingDB's records for doi:10.1021/acs.jmedchem.8b01300 (Emory University School of Medicine, 2019).

In general, pEC50 refers to −log10 of the EC50, conventionally taken in molar units. Higher therefore signals a small EC50. In assay [1], `C[C@@]1(O)[C@H](O)[C@@H](CO)O[C@H]1n1ccc(N)nc1=O` had a pEC50 of 5.55.

Molecule `CC(C)OC(=O)[C@H](C)NP(=O)(OC[C@H]1O[C@@H](n2ccc(N)nc2=O)[C@](F)(Br)[C@H]1O)Oc1ccccc1` (stereo not given in full) gave a pEC50 in assay [1] of 6.22. Regarding `Nc1nc2c(ncn2[C@@H]2O[C@H](CO)[C@@H](O)[C@]2(F)Br)c(=O)[nH]1`, the pEC50 in assay [2] is less than 5.00. For the molecule `Nc1ccn([C@@H]2O[C@H](CO)[C@@H](O)[C@]2(F)Br)c(=O)n1`, in assay [1], the pEC50 is 5.40. Still for that read-out and setting: under `Nc1ncnc2c1ncn2[C@@H]1O[C@H](CO)[C@H](O)[C@@]1(F)Br` stands less than 5.00.
